The results in this text go back to patent US6930185B2, “Melanin-concentrating hormone antagonist” (Takeda Chemical Industries, Ltd., priority 2000, dated 2005).

As for `O=C(Nc1ccc2nc(CN3CCN=C3c3ccccc3)ccc2c1)c1ccc(-c2ccccc2)cc1` [Example 94, N-[2-[(2-Phenyl-4,5-dihydro-1H-imidazol-1-yl)methyl]-6-quinolinyl][1,1′-biphenyl]-4-carboxamide], the melting point is 212 to 216 °C (dec.). The result for `O=C(Nc1ccc2cc(CN3CCCC3)ccc2c1)N1CCC(c2ccc(F)cc2)CC1` [Example 99, 4-(4-Fluorophenyl)-N-[6-(1-pyrrolidinylmethyl)-2-naphthyl]-1-piperidinecarboxamide] reads 209 to 211 °C; that for `COc1ccc(C2CCN(C(=O)Nc3ccc4cc(CN5CCCC5)ccc4c3)CC2)cc1` [Example 100, 4-(4-Methoxyphenyl)-N-[6-(1-pyrrolidinylmethyl)-2-naphthyl]-1-piperidinecarboxamide], 194 to 196 °C.

`O=C(Nc1ccc2cc(CN3CCCC3)ccc2c1)N1CCC(c2ccccc2)CC1` [Example 102, 4-Phenyl-N-[6-(1-pyrrolidinylmethyl)-2-naphthyl]-1-piperidinecarboxamide] displayed a melting point of 193 to 195 °C.

On to `Cc1ccc(C2CCN(C(=O)Nc3ccc4cc(CN5CCCC5)ccc4c3)CC2)cc1` [Example 103, 4-Methylphenyl-N-[6-(1-pyrrolidinylmethyl)-2-naphthyl]-1-piperidinecarboxamide], for which the melting point was 210 to 212 °C.

For `O=C(Nc1ccc2nc(CN3CCCCC3c3cccnc3)ccc2c1)c1ccc(-c2ccc(Cl)cc2)cc1` (stereo not shown) [Example 116, 4′-Chloro-N-[2-[[2-(3-pyridinyl)-1-piperidinyl]-methyl]-6-quinolinyl][1,1′-biphenyl]-4-carboxamide], the melting point was 124 to 126 °C (dec.).

Compound `COC[C@@H]1CCCN1Cc1ccc2cc(NC(=O)c3ccc(-c4ccc(Cl)cc4)cc3)ccc2n1` [Example 117, 4′-Chloro-N-[2-[[(2S)-2-(methoxymethyl)pyrrolidinyl]-methyl]-6-quinolinyl][1,1′-biphenyl]-4-carboxamide] yielded a melting point of 172 to 174 °C.

`CC(C)(C)OC(=O)[C@@H]1CCCN1Cc1ccc2cc(NC(=O)c3ccc(-c4ccc(Cl)cc4)cc3)ccc2n1` [Example 118, Tert-butyl (2S)-1-[[6-[[(4′-chloro[1,1′-biphenyl]-4-yl)carbonyl]amino]-2-quinolinyl]methyl]-2-pyrrolidinecarboxylate] displayed a melting point of 163 to 166 °C. As for `COc1ccc(C2CCN(C(=O)Nc3ccc4cc(CN5C(C)(C)CCCC5(C)C)ccc4c3)CC2)cc1` [Example 119, 4-(4-Methoxyphenyl)-N-[6-[(2,2,6,6-tetramethyl-1-piperidinyl)methyl]-2-naphthyl]-1-piperidinecarboxamide], the melting point was in the range of 164 to 166 °C. The result for `COc1ccc(-c2ccc(C(=O)Nc3ccc4cc(CN5C(C)(C)CCCC5(C)C)ccc4c3)cc2)cc1` [Example 120, 4′-Methoxy-N-[6-[(2,2,6,6-tetramethyl-1-piperidinyl)methyl]-2-naphthyl][1,1′-biphenyl]-4-carboxamide] reads 212 to 214 °C.

Consider `CC1(C)CCCC(C)(C)N1Cc1ccc2cc(NC(=O)c3ccc(-c4ccc(F)cc4)cc3)ccc2c1` [Example 121, 4′-Fluoro-N-[6-[(2,2,6,6-tetramethyl-1-piperidinyl)methyl]-2-naphthyl][1,1′-biphenyl]-4-carboxamide], for which the melting point lay within 238 to 241 °C.

`Cc1ccc(-c2ccc(C(=O)Nc3ccc4cc(CN5C(C)(C)CCCC5(C)C)ccc4c3)cc2)cc1` [Example 122, 4′-Methyl-N-[6-[(2,2,6,6-tetramethyl-1-piperidinyl)methyl]-2-naphthyl][1,1′-biphenyl]-4-carboxamide] displayed a melting point of 235 to 237 °C. The value for `CC1(C)CCCC(C)(C)N1Cc1ccc2cc(NC(=O)c3ccc(-c4ccc(Cl)cc4)cc3)ccc2c1` [Example 123, 4′-Chloro-N-[6-[(2,2,6,6-tetramethyl-1-piperidinyl)methyl]-2-naphthyl][1,1′-biphenyl]-4-carboxamide] was 244 to 246 °C.
